Test results published in patent US5719143A, “Polysubstituted 3-acylamino-5-phenyl-1, 4-benzodiazepin-2-one derivatives, process for their preparation and the pharmaceutical compositions containing them” (Sanofi, priority 1994, dated 1998).

Legend:
biliary emptying = test: in vivo biliary emptying model in fasted mice; settings: Mus musculus, po, 1 h, administered orally one hour before the sacrifice, bile vesicle weight
Procedure: The compounds are administered orally one hour before the sacrifice. The bile vesicle is removed and then weighed and the results, expressed in mg/kg of body weight, reveal for the compound of Example 10, for example, an ED50 of 0.3 mg/kg.

CCKA receptors = test: in vitro affinity measurement, CCKA receptors; format: binding
Procedure: These compounds have formed the subject of in vitro affinity measurement studies concerning the CCKA receptors.
(§1) This affinity is between 0.5 and 100 nM with a selectivity for the CCKA receptors over the CCKB receptors which may reach a factor of 10,000 for the compound of Example 1, for example.

CCKB receptor = test: in vitro affinity measurement, CCKB receptor; format: binding
Procedure: as §1

SMILES: COc1cc(C)cc(OC)c1C1=NC(NC(=O)c2cc3ccccc3[nH]2)C(=O)N(C)c2ccccc21 (single isomer, unassigned; (+)) [Example 10, (+)-N-[2,3-dihydro-5-(2,6-dimethoxy-4-methylphenyl)-1-methyl-2-oxo-1H-1,4-benzodiazepin-3-yl]-1H-indole-2-carboxamide]
- ED50 (biliary emptying): 0.3 mg/kg

SMILES: COc1cc(C)cc(OC)c1C1=NC(NC(=O)c2cc3ccccc3[nH]2)C(=O)N(C)c2ccccc21 (stereo not shown) [Example 1, N-[2,3-dihydro-5-(2,6-dimethoxy-4-methylphenyl)-1-methyl-2-oxo-1H-1,4-benzodiazepin-3-yl]-1H-2-indolecarboxamide]
- selectivity for the CCKA receptors over the CCKB receptors (factor) (CCKA receptors): 10,000

SMILES: COc1cc(C)cc(OC)c1C1=NC(NC(=O)Nc2cccc(C)c2)C(=O)N(C)c2ccccc21 (stereo not shown) [Example 6, 1,3-dihydro-5-(2,6-dimethoxy-4-methylphenyl)-1-methyl-3-(3-methylphenylureido)-1,4-benzodiazepin-2-one]
- affinity for the CCKB receptor compared with that for the CCKA receptor (CCKB receptor): identical to or greater than that obtained for the CCKA receptor

SMILES: COc1cc(OC)c(C2=NC(NC(=O)Nc3cccc(C)c3)C(=O)N(C)c3ccccc32)c(OC)c1 (stereo not shown) [Example 7, 1,3-dihydro-1-methyl-3-(3-methylphenylureido)-5-(2,4,6-trimethoxyphenyl)-1,4-benzodiazepin-2-one]
- affinity for the CCKB receptor compared with that for the CCKA receptor (CCKB receptor): identical to or greater than that obtained for the CCKA receptor
